Measurements from US8524744B2, “Arylamine ketones, their preparation methods, the pharmaceutical composition containing them and their use” (Institute of Mataria Medica, Chinese Academy of Medical …, priority 2004, dated 2013).
pIC50: −log10 of the molar value. Counter-ions that a name gives are not always drawn.

Test system: production of NO in macrophages from mouse peritoneal cavity
Assay: production of NO in macrophages from mouse peritoneal cavity (LPS and PAF)
Type: cell-based
Conditions: Macrophage, costimulated by LPS (1×10^−9 mol·L^−1) and PAF (1×10^−6 mol·L^−1), 24 hr, read-out: IC50, inhibition of the production of NO
Procedure: 4% of sodium mercaptoethanol was injected into C57BL/6 mouse peritoneal cavity to induce macrophages. The cells in peritoneal cavity were collected after injection for 3-4 days. 500 μl of cells were inoculated in the well of 24 wells plate which was placed in the CO2 incubator at 37° C. for 2.5 hr to make the cells adherent. The cells were rinsed by 1640 culture media. 495 μl of 1640 media containing irritant and 5 μl the compound or solvent were added into each well. The plate was incubated for 24 hr. The supernatant was taken out and mixed with the same volume of Griess agent. The reaction fluid was kept at room temperature for 10 min and the optical density was measured at 550 nm. The numbers read was transferred into the content of NO.

CCOC(=O)C1CCN(CCC(=O)/C=C/c2ccc(Cl)cc2)CC1 [Compound 3, 5-[(4-Ethoxycarbonyl)piperidyl]-1-(4-chlorophenyl)-1-penten-3-one hydrochloride]
pIC50: 6.65
